Experimental data reported in patent publication US20060122181A1, “Heteroaromatic pentacyclic compound and medicinal use thereof” (Japan Tobacco Inc., priority 2003, published 2006).

Legend:
[1] = target: T1, Recombinant human protein tyrosine phosphatase 1B (Homo sapiens, UniProt P18031); test: Protein tyrosine phosphatase 1B inhibitory activity (malachite green, phosphorylated insulin receptor peptide substrate); assay type: biochemical; details: recombinant human PTP1B, 60 min room temperature, absorbance 650 nm
T1 construct: purchased UBI
T1 sequence (P18031 1-435): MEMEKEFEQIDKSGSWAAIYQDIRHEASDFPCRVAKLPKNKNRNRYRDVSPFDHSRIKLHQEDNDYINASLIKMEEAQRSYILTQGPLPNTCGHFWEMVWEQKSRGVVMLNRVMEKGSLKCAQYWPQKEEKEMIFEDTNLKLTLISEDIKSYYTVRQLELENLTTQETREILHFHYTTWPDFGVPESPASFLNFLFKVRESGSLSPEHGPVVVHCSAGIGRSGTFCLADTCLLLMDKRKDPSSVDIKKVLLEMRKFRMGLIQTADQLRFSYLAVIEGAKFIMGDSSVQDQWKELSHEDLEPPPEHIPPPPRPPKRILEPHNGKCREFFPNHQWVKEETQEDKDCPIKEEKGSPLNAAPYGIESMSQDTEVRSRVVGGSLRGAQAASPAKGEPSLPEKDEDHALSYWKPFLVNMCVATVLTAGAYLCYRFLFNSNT
Experimental: Preparation of Assay Buffer:
A 50 mM Tris-HCl buffer (pH 7.5), 50 mM NaCl and 3 mM dithiothreitol (DTT) were prepared.
[…] 0.1, 0.3, 1, 3 and 10 μM of the test compound were prepared and diluted with the above-mentioned assay buffer to the final dimethyl sulfoxide (DMSO) concentration of not more than 1%. As the control, the assay buffer was used.
Preparation of Substrate:
Recombinant human protein tyrosine phosphatase 1B (manufactured by UBI) was diluted with the above-mentioned assay buffer (1.2 ng/25 μl).
The sample (10 μl) prepared as mentioned above and a substrate (25 μl) were successively added to a 96 well plate, and the enzyme (25 μl) prepared as mentioned above was added and mixed. The mixture was incubated at room temperature for 60 min and a malachite green (120 μl, Biomol), which is a color reagent, was added. The mixture was further incubated at room temperature for 20 min to allow for color development. An absorbance at 650 nm was measured on a plate reader based on which the protein tyrosine phosphatase 1B inhibitory activity of the test compound was evaluated.

male ob/ob mice = test: Hypoglycemic activity in ob/ob mice; assay type: in vivo; details: fasting, relative to control group
Experimental: A 0.5% methyl cellulose suspension of the test compound was orally administered to 6- to 9-week-old male ob/ob mice grouped according to the glucose level. Only a 0.5% methyl cellulose solution was administered to a control group.
Blood was drawn under fasting condition, which condition was started simultaneously with the administration by means of removing the feed. The blood was drawn under anesthesia from the orbital vein 3 hours after the administration. The blood thus taken was centrifuged and the glucose level was measured from the obtained plasma by the hexokinase method (glucose measurement kit). For evaluation, the percentage (%) of decrease in the glucose level of the test compound-administered group relative to the control group is shown.

With CCCC(CCC)c1ccc(OCc2ccc(-c3csc(CN(CC(=O)O)Cc4ccccc4)n3)cc2)cc1 [Example 1-44] the IC50 [1] was 0.22 µM, the “blood glucose decreasing rate (%) 3 hours later” value (male ob/ob mice; dose 1 mg/kg oral) was 20% and the melting point was 138 to 142 °C.
With CCCC(CCC)c1ccc(CN(C)c2ccc(-c3csc(CN(CC(=O)O)Cc4ccccc4)n3)cc2)cc1 [Example 3-36] the IC50 [1] was 0.1 µM and the “blood glucose decreasing rate (%) 3 hours later” value (male ob/ob mice; dose 3 mg/kg oral) was 52%.
With CC(C)CCN(CC(=O)O)Cc1nc(-c2ccc(N(C)Cc3ccc([C@H]4CC[C@H](C)CC4)cc3)cc2)cs1 [Example 3-92] the IC50 [1] was 0.18 µM, the “blood glucose decreasing rate (%) 3 hours later” value (male ob/ob mice; dose 1 mg/kg oral) was 26% and the melting point was 166 to 167 °C.
For CN(Cc1ccc([C@H]2CC[C@H](C)CC2)cc1)c1ccc(-c2csc(COC(=O)N(CC(=O)O)Cc3ccccc3)n2)cc1 [Example 3-108], the IC50 [1] was 0.16 µM and the “blood glucose decreasing rate (%) 3 hours later” value (male ob/ob mice; dose 1 mg/kg oral) was 29%.
With CN(Cc1ccc(C2CCCCC2)cc1)c1ccc(-c2csc(CN(CC(=O)O)Cc3ccccc3)n2)cc1 [Example 3-29] the IC50 [1] was 0.41 µM, the “blood glucose decreasing rate (%) 3 hours later” value (male ob/ob mice; dose 3 mg/kg oral) was 41% and the melting point was 148 to 150 °C.
In the case of CCCC(CCC)c1ccc(COc2ccc(C)cc2-c2csc(CN(CC(=O)O)Cc3ccccn3)n2)cc1 [Example 3-21], the IC50 [1] is reported as 0.45 µM, the “blood glucose decreasing rate (%) 3 hours later” value (male ob/ob mice; dose 1 mg/kg oral) is reported as 27% and the melting point is reported as 118 to 120 °C.
With CCC(CC)c1ccc(N(Cc2ccc(-c3csc(CN(CC(=O)O)CC(=O)Nc4ccc(C(C)C)cc4)n3)cc2)C(C)C)cc1 [Example 1-78] the IC50 [1] was 0.18 µM and the “blood glucose decreasing rate (%) 3 hours later” value (male ob/ob mice; dose 3 mg/kg oral) was 24%.
For CCCC(CCC)c1ccc(OCc2ccc(-c3csc(N(C)Cc4ccc(C(=O)O)cc4)n3)cc2)cc1 [Example 1-39], the IC50 [1] was 0.19 µM, the “blood glucose decreasing rate (%) 3 hours later” value (male ob/ob mice; dose 1 mg/kg oral) was 32% and the melting point was 156 to 158 °C.
With CCCC(CCC)c1ccc(OCc2ccc(-c3csc(COc4cncc(C(=O)O)c4)n3)cc2)cc1 [Example 1-48] the IC50 [1] was 0.23 µM, the “blood glucose decreasing rate (%) 3 hours later” value (male ob/ob mice; dose 1 mg/kg oral) was 46% and the melting point was 165 to 171 °C.
With CCCC(CCC)c1ccc(COc2ccc(C)cc2-c2csc(CN3Cc4ccccc4CC3C(=O)O)n2)cc1 (stereo not drawn) [Example 3-25] the IC50 [1] was 0.14 µM, the “blood glucose decreasing rate (%) 3 hours later” value (male ob/ob mice; dose 1 mg/kg oral) was 20% and the melting point was 149 to 152 °C.
With CCCC(CCC)c1ccc(COc2ccc(C)cc2-c2csc(CN(CC(=O)O)Cc3ccccc3)n2)cc1 [Example 3-9] the IC50 [1] was 0.17 µM, the “blood glucose decreasing rate (%) 3 hours later” value (male ob/ob mice; dose 1 mg/kg oral) was 18% and the melting point was 126 to 128 °C.
For CN(Cc1ccc(C2CCCCC2)cc1)c1ccc(-c2csc(CN(C)S(=O)(=O)c3ccc(C(=O)O)cc3)n2)cc1 [Example 3-100], the IC50 [1] was 0.15 µM, the “blood glucose decreasing rate (%) 3 hours later” value (male ob/ob mice; dose 3 mg/kg oral) was 20% and the melting point was 193 to 196 °C.
For CCCC(CCC)c1ccc(COc2ccc(-c3csc(CN(CC(=O)O)Cc4ccccc4)n3)cc2)cc1 [Example 3-10], the IC50 [1] was 0.2 µM, the “blood glucose decreasing rate (%) 3 hours later” value (male ob/ob mice; dose 1 mg/kg oral) was 18% and the melting point was 145 to 148 °C.
In the case of CCC(CC)c1ccc(COc2ccc(-c3csc(CN(CC(=O)O)Cc4ccc(C(C)C)cc4)n3)cc2)cc1 [Example 3-15], the IC50 [1] is reported as 0.27 µM, the “blood glucose decreasing rate (%) 3 hours later” value (male ob/ob mice; dose 1 mg/kg oral) is reported as 25% and the melting point is reported as 138 to 140 °C.
For CCC(CC)c1ccc(N(Cc2ccc(-c3csc(COc4cncc(C(=O)O)c4)n3)cc2)C(C)C)cc1 [Example 1-1, 5-{4-[4-({[4-(1-Ethylpropyl)phenyl]isopropylamino}methyl)-phenyl]thiazol-2-ylmethoxy}nicotinic acid], the IC50 [1] was 0.28 µM and the “blood glucose decreasing rate (%) 3 hours later” value (male ob/ob mice; dose 1 mg/kg oral) was 45%.
For CN(Cc1ccc(C2CCC(C)(C)CC2)cc1)c1ccc(-c2csc(CN(C)S(=O)(=O)c3ccc(C(=O)O)cc3)n2)cc1 [Example 3-98], the IC50 [1] was 0.16 µM, the “blood glucose decreasing rate (%) 3 hours later” value (male ob/ob mice; dose 3 mg/kg oral) was 31% and the melting point was 218 to 221 °C.
For CCCC(CCC)c1ccc(N(C)Cc2ccc(-c3csc(N(C)Cc4ccc(C(=O)O)cc4)n3)cc2)cc1 [Example 1-19], the IC50 [1] was 0.1 µM, the “blood glucose decreasing rate (%) 3 hours later” value (male ob/ob mice; dose 1 mg/kg oral) was 35% and the melting point was 110 to 113 °C.
For CN(Cc1ccc([C@H]2CC[C@H](C)CC2)cc1)c1ccc(-c2csc(CN(CC(=O)O)Cc3ccccc3)n2)cc1 [Example 3-32], the IC50 [1] was 0.18 µM, the “blood glucose decreasing rate (%) 3 hours later” value (male ob/ob mice; dose 1 mg/kg oral) was 14% and the melting point was 157 to 159 °C.
For CCCC(CCC)c1ccc(CN(C)c2ccc(-c3csc(CN(C)[C@@H](Cc4ccccc4)C(=O)O)n3)cc2)cc1 [Example 3-86], the IC50 [1] was 0.2 µM, the “blood glucose decreasing rate (%) 3 hours later” value (male ob/ob mice; dose 1 mg/kg oral) was 16% and the melting point was 143 °C.
For CCCC(CCC)c1ccc(OCc2ccc(-c3csc(CN4Cc5ccccc5CC4C(=O)O)n3)cc2)cc1 (stereo not drawn) [Example 1-45], the IC50 [1] was 0.066 µM, the “blood glucose decreasing rate (%) 3 hours later” value (male ob/ob mice; dose 1 mg/kg oral) was 32% and the melting point was 117 to 126 °C.
With CCCC(CCC)c1ccc(CN(C)c2ccc(-c3csc([C@@H]4Cc5ccccc5CN4CC(=O)[O-])n3)cc2)cc1.[Na+] [Example 3-64] the IC50 [1] was 0.21 µM, the “blood glucose decreasing rate (%) 3 hours later” value (male ob/ob mice; dose 1 mg/kg oral) was 13% and the melting point was 186 to 187 °C.
With CCCC(CCC)c1ccc(CN(C)c2ccc(-c3csc(CN4Cc5ccccc5CC4C(=O)O)n3)cc2)cc1 (stereo not drawn) [Example 3-73] the IC50 [1] was 0.2 µM, the “blood glucose decreasing rate (%) 3 hours later” value (male ob/ob mice; dose 1 mg/kg oral) was 14% and the melting point was 176 to 179 °C.
With CN(Cc1ccc(C(=O)O)cc1)c1nc(-c2ccc(COc3ccc(C4CCCCC4)cc3)cc2)cs1 [Example 1-37] the IC50 [1] was 0.14 µM, the “blood glucose decreasing rate (%) 3 hours later” value (male ob/ob mice; dose 3 mg/kg oral) was 26% and the melting point was 209 to 211 °C.
In the case of CC(C)Cc1ccc(CN(C)c2ccc(-c3csc(CN(CC(=O)O)C(=O)Cc4ccc(C(C)C)cc4)n3)cc2)cc1 [Example 3-58], the IC50 [1] is reported as 0.39 µM, the “blood glucose decreasing rate (%) 3 hours later” value (male ob/ob mice; dose 1 mg/kg oral) is reported as 23% and the melting point is reported as 124 to 126 °C.
For CN(Cc1ccc(C2CCCCC2)cc1)c1ccc(-c2csc(CN3CCC(C(=O)O)(c4ccccc4)CC3)n2)cc1 [Example 3-67], the IC50 [1] was 0.23 µM, the “blood glucose decreasing rate (%) 3 hours later” value (male ob/ob mice; dose 3 mg/kg oral) was 20% and the melting point was 220 to 222 °C.
In the case of CN(Cc1ccc(C2CCCCC2)cc1)c1ccc(-c2csc(CNC(Cc3ccccc3)C(=O)O)n2)cc1 (stereo not drawn) [Example 3-76], the IC50 [1] is reported as 0.48 µM, the “blood glucose decreasing rate (%) 3 hours later” value (male ob/ob mice; dose 1 mg/kg oral) is reported as 33% and the melting point is reported as 185 to 190 °C.
For CCCC(CCC)c1ccc(N(C)Cc2ccc(-c3csc(CN(C)S(=O)(=O)c4ccc(C(=O)O)cc4)n3)cc2)cc1 [Example 1-15], the IC50 [1] was 0.13 µM and the “blood glucose decreasing rate (%) 3 hours later” value (male ob/ob mice; dose 1 mg/kg oral) was 35%.
In the case of CN(Cc1ccc([C@H]2CC[C@H](C)CC2)cc1)c1ccc(-c2csc(CN(CC(=O)O)Cc3ccccn3)n2)cc1 [Example 3-52], the IC50 [1] is reported as 0.54 µM and the “blood glucose decreasing rate (%) 3 hours later” value (male ob/ob mice; dose 1 mg/kg oral) is reported as 28%.
In the case of CCCC(CCC)c1ccc(OCc2ccc(-c3csc(CC4CCN(c5ccc(C(=O)O)cc5)CC4)n3)cc2)cc1 [Example 1-181], the IC50 [1] is reported as 0.2 µM and the melting point is reported as 174 to 175 °C.
In the case of CCCC(CCC)c1ccc(OCc2ccc(-c3ccc(CN(CC(=O)O)Cc4c[nH]c(-c5ccccc5)n4)s3)cc2)cc1 [Example 4-94], the IC50 [1] is reported as 0.12 µM and the melting point is reported as 131.8 to 137.6 °C.
CCCC(CCC)c1ccc(COc2ccc(-c3csc(CN4CCN(c5cccc(C(=O)O)c5)CC4)n3)cc2)cc1 [Example 1-156] showed an IC50 [1] of 0.19 µM and a melting point of 153 to 154 °C.
For CCCC(CCC)c1ccc(CN(C)c2ccc(-c3csc(CN(CC(=O)O)Cc4ccccn4)n3)cc2)cc1 [Example 3-53], the IC50 [1] was 0.28 µM, the “blood glucose decreasing rate (%) 3 hours later” value (male ob/ob mice; dose 1 mg/kg oral) was 20% and the melting point was 117 to 120 °C.
For CCCC(CCC)c1ccc(N(C)Cc2ccc(-c3csc(CN(CC(=O)O)Cc4ccccc4)n3)cc2)cc1 [Example 1-25], the IC50 [1] was 0.13 µM, the “blood glucose decreasing rate (%) 3 hours later” value (male ob/ob mice; dose 1 mg/kg oral) was 25% and the melting point was 138 °C.
